Results from PMC9848300, “Discovery of novel enasidenib analogues targeting inhibition of mutant isocitrate dehydrogenase 2 as antileukaemic agents” (Journal of Enzyme Inhibition and Medicinal Chemistry, 2023).
Read-outs that look alike come from different tables or passages of the source.

Experiments:
HL-60(TB) = experiment: NCI 60 antitumor screening (single dose / five doses); type: cell-based; settings: Homo sapiens
K-562 = experiment: as above; type: cell-based; settings: Homo sapiens, K562
MOLT-4 = experiment: as above; type: cell-based; settings: Homo sapiens
RPMI-8226 = experiment: as above; type: cell-based; settings: Homo sapiens
EKVX = experiment: as above; type: cell-based; settings: Homo sapiens; EKVX (non-small cell lung cancer), single dose 10 μM; read-out: Growth inhibition percentage (GI %)
HCC-2998 = experiment: NCI 60 antitumor screening (single dose); type: cell-based; settings: Homo sapiens; HCC-2998 (colon cancer), single dose 10 μM; read-out: Growth inhibition percentage (GI %)
Method in brief: (§1)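 NCI-60 one-dose screen. Dose: 10 μM. Lines: 60 human tumour lines, nine tissue types. Output: GI% = 100 − G%.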

HOP-62 = experiment: NCI 60 antitumor screening (single dose); type: cell-based; settings: Homo sapiens; HOP-62 (non-small cell lung cancer), single dose 10 μM; read-out: Growth inhibition percentage (GI %)
Method in brief: as §1

NCI-H460 = experiment: NCI 60 antitumor screening (single dose); type: cell-based; settings: Homo sapiens; NCI-H460 (non-small cell lung cancer), single dose 10 μM; read-out: Growth inhibition percentage (GI %)
Method in brief: as §1

OVCAR-8 = experiment: NCI 60 antitumor screening (single dose); type: cell-based; settings: Homo sapiens; OVCAR-8 (ovarian cancer), single dose 10 μM; read-out: Growth inhibition percentage (GI %)
Method in brief: (§2)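 NCI-60 protocol: single 10 μM dose against each cell line, run in triplicate. Percent growth (G%) of treated cells measured and growth inhibition reported as GI% = 100 − G%; panel mean also given.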

PC-3 = experiment: NCI 60 antitumor screening (single dose); type: cell-based; settings: Homo sapiens; PC-3 (prostate cancer), single dose 10 μM; read-out: Growth inhibition percentage (GI %)
Method in brief: as §2

TK-10 = experiment: NCI 60 antitumor screening (single dose); type: cell-based; settings: Homo sapiens; TK-10 (renal cancer), single dose 10 μM; read-out: Growth inhibition percentage (GI %)
Method in brief: as §2

COLO 205 = experiment: NCI 60 antitumor screening (single dose / five doses); type: cell-based; settings: Homo sapiens
HCT-15 = experiment: as above; type: cell-based; settings: Homo sapiens
HT29 = experiment: as above; type: cell-based, human; settings: for GI50: read-out: GI50
SW-620 = experiment: as above; type: cell-based, human; settings: for GI50: read-out: GI50
SF-295 = experiment: as above; type: cell-based; settings: Homo sapiens
LOX IMVI = experiment: as above; type: cell-based; settings: Homo sapiens
SK-MEL-5 = experiment: as above; type: cell-based; settings: Homo sapiens
UACC-257 = experiment: as above; type: cell-based; settings: Homo sapiens; UACC-257 (melanoma), single dose 10 μM; read-out: Growth inhibition percentage (GI %)
UACC-62 = experiment: as above; type: cell-based; settings: Homo sapiens; UACC-62 (melanoma), single dose 10 μM; read-out: Growth inhibition percentage (GI %)
IGROV1 = experiment: as above; type: cell-based; settings: Homo sapiens, IGROV-1
786-0 = experiment: as above; type: cell-based; settings: Homo sapiens
ACHN = experiment: as above; type: cell-based; settings: Homo sapiens
RXF 393 = experiment: as above; type: cell-based; settings: Homo sapiens
UO-31 = experiment: as above; type: cell-based; settings: Homo sapiens
MDA-MB-231/ATCC = experiment: as above; type: cell-based; settings: Homo sapiens
BT-549 = experiment: as above; type: cell-based; settings: Homo sapiens
MDA-MB-468 = experiment: as above; type: cell-based; settings: Homo sapiens

Brc1cccc(/C=N/Nc2nc(N/N=C/c3cccc(Br)c3)nc(N3CCOCC3)n2)c1 [compound 6c, 2,4-Bis[(E)-2-[(3-bromophenyl)methylidene]hydrazin-1-yl]-6-(morpholin-4-yl)-1,3,5-triazine]
inhibition at 10 µM (HL-60(TB); HL-60(TB) (leukaemia), single dose 10 μM, read-out: Growth inhibition percentage (GI %)): 110%
GI50 (HL-60(TB); HL-60(TB), five doses (0.01–100 μM), read-out: GI50): 150 nM
inhibition at 10 µM (K-562; K-562 (leukaemia), single dose 10 μM, read-out: Growth inhibition percentage (GI %)): 85.5%
GI50 (K-562; K-562, five doses (0.01–100 μM), read-out: GI50): 330 nM
inhibition at 10 µM (MOLT-4; MOLT-4 (leukaemia), single dose 10 μM, read-out: Growth inhibition percentage (GI %)): 89.8%
GI50 (MOLT-4; MOLT-4, five doses (0.01–100 μM), read-out: GI50): 680 nM
inhibition at 10 µM (RPMI-8226; RPMI-8226 (leukaemia), single dose 10 μM, read-out: Growth inhibition percentage (GI %)): 65.8%
GI50 (RPMI-8226; RPMI-8226, five doses (0.01–100 μM), read-out: GI50): 1680 nM
inhibition at 10 µM (EKVX): 51%
inhibition at 10 µM (HCC-2998): 68.5%
inhibition at 10 µM (HOP-62): 47.7%
inhibition at 10 µM (NCI-H460): 58.8%
inhibition at 10 µM (OVCAR-8): 62.6%
inhibition at 10 µM (PC-3): 63.5%
inhibition at 10 µM (TK-10): 33.2%
inhibition at 10 µM (COLO 205; COLO 205 (colon cancer), single dose 10 μM, read-out: Growth inhibition percentage (GI %)): 76.2%
GI50 (COLO 205; COLO 205, five doses (0.01–100 μM), read-out: GI50): 1240 nM
inhibition at 10 µM (HCT-15; HCT-15 (colon cancer), single dose 10 μM, read-out: Growth inhibition percentage (GI %)): 109%
GI50 (HCT-15; HCT-15, five doses (0.01–100 μM), read-out: GI50): 420 nM
GI50 (HT29; HT29, five doses (0.01–100 μM)): 610 nM
GI50 (HT29; Homo sapiens, HT-29, HT29, five doses (0.01–100 μM)): 600 nM
inhibition at 10 µM (HT29; Homo sapiens, HT-29, HT29 (colon cancer), single dose 10 μM, read-out: Growth inhibition percentage (GI %)): 93.4%
GI50 (SW-620; Homo sapiens, SW-620, SW-620, five doses (0.01–100 μM)): 820 nM
inhibition at 10 µM (SW-620; Homo sapiens, SW-620 (colon cancer), single dose 10 μM, read-out: Growth inhibition percentage (GI %)): 75.3%
GI50 (SW-620; SW-620, five doses (0.01–100 μM)): 830 nM
inhibition at 10 µM (SF-295; SF-295 (CNS cancer), single dose 10 μM, read-out: Growth inhibition percentage (GI %)): 70.9%
GI50 (SF-295; SF-295, five doses (0.01–100 μM), read-out: GI50): 4940 nM
inhibition at 10 µM (LOX IMVI; LOX IMVI (melanoma), single dose 10 μM, read-out: Growth inhibition percentage (GI %)): 94.8%
GI50 (LOX IMVI; LOX IMVI, five doses (0.01–100 μM), read-out: GI50): 2660 nM
inhibition at 10 µM (SK-MEL-5; SK-MEL-5 (melanoma), single dose 10 μM, read-out: Growth inhibition percentage (GI %)): 79.3%
GI50 (SK-MEL-5; SK-MEL-5, five doses (0.01–100 μM), read-out: GI50): 1990 nM
inhibition at 10 µM (UACC-257): 64.1%
inhibition at 10 µM (UACC-62): 44%
inhibition at 10 µM (IGROV1; IGROV1 (ovarian cancer), single dose 10 μM, read-out: Growth inhibition percentage (GI %)): 57.2%
GI50 (IGROV1; IGROV1, five doses (0.01–100 μM), read-out: GI50): 2920 nM
inhibition at 10 µM (786-0; 786-0, 786-0 (renal cancer), single dose 10 μM, read-out: Growth inhibition percentage (GI %)): 75.5%
GI50 (786-0; 786-0, five doses (0.01–100 μM), read-out: GI50): 530 nM
inhibition at 10 µM (ACHN; ACHN (renal cancer), single dose 10 μM, read-out: Growth inhibition percentage (GI %)): 73.7%
GI50 (ACHN; ACHN, five doses (0.01–100 μM), read-out: GI50): 2210 nM
inhibition at 10 µM (RXF 393; RXF 393 (renal cancer), single dose 10 μM, read-out: Growth inhibition percentage (GI %)): 168%
GI50 (RXF 393; RXF 393, five doses (0.01–100 μM), read-out: GI50): 160 nM
inhibition at 10 µM (UO-31; UO-31 (renal cancer), single dose 10 μM, read-out: Growth inhibition percentage (GI %)): 74.5%
GI50 (UO-31; UO-31, five doses (0.01–100 μM), read-out: GI50): 1010 nM
GI50 (MDA-MB-231/ATCC; MDA-MB-231/ ATCC, five doses (0.01–100 μM), read-out: GI50): 3970 nM
inhibition at 10 µM (MDA-MB-231/ATCC; MDA-MB-231/ATCC (breast cancer), single dose 10 μM, read-out: Growth inhibition percentage (GI %)): 33.9%
inhibition at 10 µM (BT-549; BT-549 (breast cancer), single dose 10 μM, read-out: Growth inhibition percentage (GI %)): 47.3%
GI50 (BT-549; BT-549, five doses (0.01–100 μM), read-out: GI50): 3540 nM
inhibition at 10 µM (MDA-MB-468; MDA-MB-468 (breast cancer), single dose 10 μM, read-out: Growth inhibition percentage (GI %)): 98.9%
GI50 (MDA-MB-468; MDA-MB-468, five doses (0.01–100 μM), read-out: GI50): 1910 nM
